This passage reports outcome results from PubChem BioAssay AID1189 (EPA DSSTox, 2008).

The source made the active and inactive calls.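 The calls were made as follows: active = a tumor-causing dose value with its tumor site reported for any sex and species group of a rodent or other animal cancer study; inconclusive = only studies judged inadequate by the national testing program; inactive = tested in at least one study, none positive.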

A short description of the data set: DSSTox (CPDBAS) Carcinogenic Potency Database Summary SingleCellCall Results. The conditions noted are these: animal chronic carcinogenicity bioassays, CPDB summary call. Put shortly:
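Literature-derived summary: each substance receives an overall carcinogenic/non-carcinogenic category drawn from long-term bioassays in rats, mice, hamsters, dogs or primates, using the most positive sex-species experiment and minimal evidence criteria.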
Turning to `COP(=S)(OC)SCn1nnc2ccccc2c1=O`, the outcome was inactive.

As for `Cc1cc(O)cc(C)c1N(C)C`, the outcome is “inactive; active”.

As for `CC1(C)OC(=O)NC1=O`, the outcome was inactive.

In the case of `Nc1ccc2ccccc2c1S(=O)(=O)O`, the outcome was inactive.

For `N[C@@H](Cc1c[nH]c2ccccc12)C(=O)O`, the outcome was inactive.

In the case of `CCn1cc(C(=O)O)c(=O)c2cc3c(cc21)OCO3`, the result was active.

For the compound `S=C([S-])NCCNC(=S)[S-].[Mn+2]`, the result was active.

For the compound `Nc1ccc(Oc2ccc(N)cc2)cc1`, the result was active.

For `COc1cccc2c1cc([N+](=O)[O-])c1c(C(=O)O)cc3c(c12)OCO3`, the outcome was “active; inactive”.

In the case of `NNCCO`, the outcome was “active; inactive”.

`Clc1ccc(C(c2ccc(Cl)cc2)C(Cl)(Cl)Cl)cc1`: the outcome was active.

In the case of `Cc1ccc2ccccc2c1`, the outcome was “inactive; active”.

On to `O=S(=O)(O)c1ccc(N=Nc2c(O)ccc3cc(S(=O)(=O)O)ccc23)cc1`, for which the outcome was inactive.

In the case of `Brc1cc(Br)c(-c2cc(Br)c(Br)cc2Br)cc1Br`, the outcome was active.

As to `NC(N)=S`, the outcome was “active; inactive”.

As to `[Cl-].[Cl-].[Sn+2]`, the result was inactive.

Take `O=C(O)CN(CC(=O)O)CC(=O)O`: the outcome was active.

For the compound `[Se]`, the outcome was inactive.

As to `CC(C)(C)O`, the outcome is “active; inactive”.

Take `COc1nn(CSP(=S)(OC)OC)c(=O)s1`: the result was active.

`CCN(CC)CCOc1ccc(C(O)(Cc2ccc(OC)cc2)c2ccccc2)cc1` (centres undefined): the result was inactive.

Regarding `NC(=O)Cc1c([O-])on[n+]1Cc1ccccc1`, the outcome is “active; inactive”.

For `c1ccc2sc(SNC3CCCCC3)nc2c1`, the result was inactive.

Regarding `NNC(=O)c1ccncc1`, the outcome was “active; inactive”.

For the compound `Cn1cc[nH]c1=S`, the outcome is “active; inactive”.

Consider `CCCCCNN`, for which the result was active.

Turning to `CN(N=O)c1ccccc1`, the outcome was active.

As to `C1CC2OC2CC1C1CO1` (centres undefined), the outcome was inactive.

Regarding `O=C([O-])c1cc(N=Nc2ccc(-c3ccc(N=Nc4c(O)ccc(N=Nc5cc(S(=O)(=O)[O-])ccc5[O-])c4[O-])cc3)cc2)ccc1O.[Cu+2].[Na+].[Na+]`, the outcome is “active; inactive”.

Take `FC(F)(Cl)Cl`: the result was inactive.

With `OCc1ccco1`, the result was active.

Regarding `C/C=C/c1ccc2c(c1)OCO2`, the result was inactive.

On to `OC[C@@H](O)[C@H]1O[C@@H]2O[C@H](C(Cl)(Cl)Cl)O[C@@H]2[C@H]1O`, for which the result was inactive.

Regarding `O=S(=O)(c1ccc(Cl)cc1)c1ccc(Cl)cc1`, the outcome was “inactive; active”.

For the compound `C=CCOC(=O)CC(C)C`, the outcome was active.

Regarding `CCCCNC(=O)NS(=O)(=O)c1ccc(C)cc1`, the result was inactive.

For `ClCOCCOCCl`, the result was active.

Take `CCCCCCCCCCCCCCN(C)N=O`: the result was active.

For the compound `O=P(OCC(Br)CBr)(OCC(Br)CBr)OCC(Br)CBr` (centres undefined), the outcome was active.

In the case of `O=C/C=C/O`, the result was active.

As to `Nc1cccc2c(N)cccc12`, the outcome was active.

On to `CC12CCC(CC1)C(C)(C)O2`, for which the outcome was inactive.

`Cc1c(N)cccc1N`: the result was inactive.

On to `COc1ccc(C(=O)Nc2c(Cl)cncc2Cl)cc1OC1CCCC1`, for which the outcome was active.

Regarding `O=C1NCCN1`, the outcome was inactive.

In the case of `c1ccc(Nc2ccc3ccccc3c2)cc1`, the result was inactive.

Consider `C=C(F)F`, for which the outcome was inactive.

Turning to `CNC(=S)NC`, the outcome was inactive.

In the case of `OCC(CO)N[C@H]1C[C@](O)(CO)[C@@H](O)[C@H](O)[C@H]1O`, the result was inactive.

With `CC(O)CNCC(C)O` (centres undefined), the outcome was inactive.

Regarding `CN(C)N`, the outcome was active.

As for `CCCCCN(N=O)C(=N)N[N+](=O)[O-]`, the outcome was inactive.

For the compound `O=NN1CC=CCC1`, the outcome was active.

`Cc1c2ccccc2c(C)c2c1ccc1ccccc12`: the outcome is “active; inactive”.

Turning to `c1ccncc1`, the outcome was active.

For the compound `Nc1cc(Cl)c(N)c(Cl)c1`, the outcome was “active; inactive”.

In the case of `O=C(O)CNCC(=O)O`, the result was inactive.

Regarding `CN(C)c1ccc(N=Nc2ccccc2)cc1`, the result was active.

`CC(=O)N(O)c1ccc2c(c1)Cc1ccccc1-2`: the outcome was “active; inactive”.

As for `COc1ccc(N)c(OC)c1`, the result was inactive.

As for `c1ccc2occc2c1`, the outcome is “active; inactive”.

Consider `COc1cc(O)c2c(=O)c3c(OC)cc4c(c3oc2c1OC)C1C=COC1O4` (centres undefined), for which the result was active.

For the compound `CCOCCc1c(-c2ccccc2)nc(N)n2ncnc12`, the outcome is “active; inactive”.

As to `O=Cc1ccccc1`, the result was active.

On to `CCOP(=S)(OCC)Oc1cc(C)nc(C(C)C)n1`, for which the outcome is “inactive; active”.

Turning to `c1ccc2n[nH]nc2c1`, the outcome was inactive.

Regarding `O=C(O)c1ccc([N+](=O)[O-])cc1`, the result was active.

In the case of `O=C/C=C/c1ccccc1`, the outcome was inactive.

Take `Nc1ccc(Sc2ccc(N)cc2)cc1`: the result was active.

In the case of `C=C(Cl)CSC(=S)N(CC)CC`, the outcome is “active; inactive”.

Regarding `CCCCCCCCCCCCN(C)N=O`, the result was active.

Consider `c1ccc(NNc2ccccc2)cc1`, for which the outcome was active.

`c1ccoc1`: the outcome is “active; inactive”.

For `ClCOCCl`, the outcome was “active; inactive”.

For the compound `CC(=O)O[C@]1(C(C)=O)CC[C@H]2[C@@H]3C=C(Cl)C4=CC(=O)[C@@H]5C[C@@H]5[C@]4(C)[C@H]3CC[C@@]21C`, the outcome is “active; inactive”.

Consider `Nc1ccc(/C=C/c2ccc(N)cc2S(=O)(=O)O)c(S(=O)(=O)O)c1`, for which the outcome was “inactive; active”.

As for `C[C@@H]1O[C@@H](OC[C@H]2O[C@@H](Oc3c(-c4ccc(O)c(O)c4)oc4cc(O)cc(O)c4c3=O)[C@H](O)[C@@H](O)[C@@H]2O)[C@H](O)[C@H](O)[C@H]1O`, the outcome was inactive.

As to `CC[N+](=O)[O-]`, the result was inactive.

As to `COC(=O)C1=CCCN(N=O)C1`, the result was inactive.

Take `CCCCNNCCCC`: the outcome was “active; inactive”.

With `CC=O`, the outcome is “active; inactive”.

Turning to `CC(Cl)C=O` (centres undefined), the outcome was active.

For `O=C(O)c1ccc(O)c(O)c1`, the result was inactive.

For `COC(=O)c1ccc(C(=O)OC)cc1`, the outcome was “inactive; active”.

For `CCNNC(=O)[C@@H]1[C@H](c2cc(OC)c(OC)c(OC)c2)c2cc3c(cc2[C@H](O)[C@H]1CO)OCO3`, the result was inactive.

Turning to `CCN(C#N)N=O`, the result was active.

Take `CC(C)(C)NCC(O)c1cc(O)cc(O)c1` (centres undefined): the outcome was active.

Take `COc1cc2c(c3oc(=O)c4c(c13)CC[C@H]4O)[C@@H]1C=CO[C@H]1O2`: the result was active.

As for `CCCCC(CC)COC(=O)COc1ccc(Cl)cc1Cl` (centres undefined), the result was inactive.

Turning to `Nc1ccc(-c2ccc(N)c(O)c2)cc1O`, the result was active.

Consider `c1ccc2c(c1)[nH]c1ccccc12`, for which the result was active.

For the compound `Oc1ccc(-c2ccccc2)cc1`, the outcome was “inactive; active”.

For `COc1cccc2c1C(=O)c1c(O)c3c(c(O)c1C2=O)C[C@@](O)(C(=O)CO)C[C@@H]3O[C@H]1C[C@H](N)[C@H](O)[C@H](C)O1`, the outcome is “inactive; active”.

For `c1ccc2c(c1)Nc1ccccc1S2`, the outcome was inactive.

Turning to `O=c1ccc2ccccc2o1`, the outcome was “active; inactive”.

Regarding `Clc1cnc(Oc2ccc(Oc3ncc(Cl)cc3Cl)cc2)c(Cl)c1`, the outcome was inactive.

For the compound `CC[C@]1(O)CC2CN(CCc3c([nH]c4ccccc34)[C@@](C(=O)OC)(c3cc4c(cc3OC)N(C)[C@H]3[C@@](O)(C(=O)OC)[C@H](OC(C)=O)[C@]5(CC)C=CCN6CC[C@]43[C@@H]65)C2)C1` (some centres undefined), the outcome was inactive.

For the compound `O=c1cc(CO)occ1O`, the outcome was active.

As for `O=C1c2ccccc2C(=O)N1SC(Cl)(Cl)Cl`, the result was active.

As to `C=CCN(CCO)N=O`, the outcome was active.

With `COc1cc(/C=C/C(=O)CC(=O)/C=C/c2ccc(O)c(OC)c2)ccc1O`, the outcome was inactive.

Regarding `O=NN1CCOCC1`, the outcome was “active; inactive”.

Take `O=[N+]([O-])c1ccc(-c2cscn2)o1`: the outcome was active.

Take `NC(=O)N(CCF)N=O`: the outcome was “active; inactive”.

In the case of `CN(N=O)c1ccncc1`, the outcome was “inactive; active”.

On to `Cc1cc(N=Nc2ccccc2C)ccc1N`, for which the outcome was active.

Take `Cc1ccc2c(c1[N+](=O)[O-])C(=O)c1ccccc1C2=O`: the result was active.

Regarding `CN(C)C(=S)[S][Bi]([S]C(=S)N(C)C)[S]C(=S)N(C)C`, the outcome was inactive.

Take `O=C(O)c1cc(Oc2ccc(C(F)(F)F)cc2Cl)ccc1[N+](=O)[O-]`: the outcome was active.

Consider `Clc1cc2c(cc1Cl)Oc1cc(Cl)c(Cl)cc1O2`, for which the outcome was “active; inactive”.

Regarding `O=[N+]([O-])c1ccc(Cl)c([N+](=O)[O-])c1`, the result was inactive.

On to `CN(Cc1cnc2nc(N)nc(N)c2n1)c1ccc(C(=O)N[C@@H](CCC(=O)O)C(=O)O)cc1`, for which the result was inactive.

For the compound `CC1(C)S[C@@H]2[C@H](NC(=O)[C@H](N)c3ccccc3)C(=O)N2[C@H]1C(=O)O`, the outcome was inactive.

In the case of `[Cd+2].[Cl-].[Cl-]`, the outcome is “active; inactive”.
